# Key:
# HT-29 = test: Cytotoxicity against human HT-29 cells; format: functional, cell-based
# HCT-116 = test: Cytotoxicity against human HCT116 cells; format: functional, cell-based
# [1] = Irreversible inhibition of 20S proteasome
smiles,measurement,setting,value
CC(C)(C)c1[nH]cnc1/C=c1\[nH]c(=O)/c(=C/c2ccccc2)[nH]c1=O [PLINABULIN],IC50,HT-29,0.018 µM
C=CC(C)(C)c1[nH]cnc1/C=C1\NC(=O)[C@H](Cc2ccccc2)NC1=O,IC50,HT-29,0.44 µM
C[C@@]12OC(=O)[C@]1([C@@H](O)[C@@H]1C=CCCC1)NC(=O)[C@@H]2CCCl [MARIZOMIB],IC50,HCT-116,0.035 µM
CC(C)[C@H](O)[C@@]12NC(=O)[C@H](C)[C@@H]1OC2=O [OMURALIDE],IC50,[1],0.049 µM
